Data published in patent publication US11713318B2, “Short conjugated oligoelectrolytes and uses thereof” (The Regents Of The University Of California, priority 2018, dated 2023).
Like-named read-outs stand apart in the source and are kept apart here.

How the values were obtained:
[1] = system: K pneumoniae (clinical isolate); assay: MIC panel of pathogens, Table 4; assay type: cell-based; conditions: clinical isolate from Cottage Hospital
HRPTEpiC = assay: Cytotoxicity tested by Eurofins Pharma Discovery Services; assay type: cell-based; conditions: data provided by Eurofins, read-out: IC50
E. coli K12 (ATCC 47076) = assay: MIC broth microdilution method, Table 3; conditions: Escherichia coli, ATCC47076
N. gonorrhoeae = assay: MIC panel of pathogens, Table 4; assay type: cell-based; conditions: Neisseria gonorrhoeae
S. pneumoniae Daw 1 = assay: MIC panel of pathogens, Table 4; assay type: cell-based; conditions: Streptococcus pneumoniae, DAW1
[2] = system: S. aureus (MRSA) (clinical isolate); assay: MIC panel of pathogens, Table 4; assay type: cell-based; conditions: Staphylococcus aureus, clinical isolate from Cottage Hospital
[3] = system: S. aureus ATCC BAA-1717 (MRSA); assay: MIC against resistant strains, Tables 5a-5d; assay type: cell-based; conditions: Staphylococcus aureus, n = 3
Method: (§1) Compounds described herein were evaluated for growth inhibition against a variety of bacterial species, including strains that have developed resistance to common antibacterial treatments, according to the procedure described herein, or by analogous procedures known to those skilled in the art. Resistant bacterial strains used for compound testing include methicillin-resistant S. aureus (MRSA), vancomycin resistant Enterococci (VRE) and various multi-drug resistant (MDR) strains commonly associated with hospital-acquired (nosocomial) infections, including, but not limited to A. baumannii, K. pnuemoniae, and E. cloacae.

[4] = system: P. aeruginosa 1674623 (MDR); assay: MIC against resistant strains, Tables 5a-5d; assay type: cell-based; conditions: Pseudomonas aeruginosa, n = 3
Method: as §1

P. aeruginosa = assay: MIC panel of pathogens, Table 4; assay type: cell-based; conditions: Pseudomonas aeruginosa
[5] = system: RAW264.7 (ATCC TIB-71) cells; assay: Cytotoxicity, MTT assay; assay type: cell-based, murine; conditions: Mus musculus, RAW264.7; RAW 264.7; MTT, 24 hours incubation; read-out: IC50
Method: Before removing the frozen cell stocks from liquid nitrogen, culture medium was pre-warmed to 37° C. The frozen tube was then removed from liquid nitrogen and placed into a 37° C. water bath and shaken gently to thaw the cell stock as quickly as possible. A small portion of the pre-warmed culture medium was added to the cell solution. The cell suspension was then centrifuged at 1000 r/min for 3 minutes. The supernatant was discarded and the cells were resuspended in fresh culture medium.
NIH 3T3 (ATCC CRL-1658) and Hep G2 (ATCC HB-8065) cells were cultured with DMEM+10% FBS in 100 mm dishes. Cells were lifted for subculture or testing when confluence reached ˜60% by treating with 1× trypsin (incubated for 3 min at 37° C.). J774 (ATCC TIB-67) cells were cultured with DMEM+10% FBS in 100 mm dishes. Cells were lifted for subculture or testing when confluence reached ˜80% using a cell scraper. RAW264.7 (ATCC TIB-71) cells were cultured with DMEM+10% heat-inactivated FBS+1% pen/strep in T75 flasks. Cells were lifted for subculture or testing when confluence reached ˜80% using a cell scraper.
• 1. Cells were lifted and resuspended in culture medium. The number of cells in the cell suspension was determined using an auto-cell counter: 10 μL of the cell suspension was mixed with 10 μL 1× trypan blue (filtered with 0.2 μm PES filter) and the mixture was loaded onto a cell counting slide. Based on the concentration of viable cells, the cell suspension was further diluted to achieve the desired density. • 2. […] The 96-well plates were analyzed in a plate reader using the following method: shake for 5 minutes, wait for 30 seconds, and measure absorbance at 570 nm. • 8. Data processing: The average of background Abg was calculated from the blank column. […] The average A. and standard deviation Se of each experimental group and the average Ac and standard deviation Sc for control group (with pure culture medium incubation) were then calculated. The cell viability was determined as Ae/Ac×100% and corresponding error as Se/Ae×100%. […]

S. Typhimurium = assay: MIC panel of pathogens, Table 4; assay type: cell-based; conditions: Salmonella enterica
Y. pseudotuberculosis = assay: microbe, parasite or virus in culture; assay type: cell-based; conditions: Yersinia pseudotuberculosis
[6] = system: K. aerogenes (ATCC 13048); assay: MIC broth microdilution method, Table 3; conditions: Klebsiella aerogenes, ATCC13048
[7] = Cytotoxicity tested by Eurofins Pharma Discovery Services; assay type: cell-based; conditions: Primary Human Hepatocytes, Eurofins; at the concentration given as IC50 bound; read-out: cell viability at the highest or lowest test concentration
Cytotoxicity, MTT assay = assay type: cell-based; conditions: at the concentration given as IC50 bound, read-out: cell viability at the highest or lowest test concentration
How it was run: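 Cells seeded at 5000/well (NIH 3T3) or 10000/well (Hep G2, J774, RAW264.7) in DMEM+10% FBS, incubated overnight, then exposed 24 h to 2-fold serial dilutions (9 concentrations, six replicates each). MTT added for 4 h, formazan dissolved in DMSO, A570 read. Viability expressed as blank-corrected absorbance relative to medium-only control.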

CCCCCC[N+](C)(C)CCCCCCOc1cc(/C=C/c2cc(OCCCCCC[N+](C)(C)CCCCCC)cc(OCCCCCC[N+](C)(C)CCCCCC)c2)cc(OCCCCCC[N+](C)(C)CCCCCC)c1 [Formula E]
MIC [1]: 4 µg/mL | IC50 (HRPTEpiC): 2.6 µg/mL | MIC (E. coli K12 (ATCC 47076)): 4 µg/mL | MIC (N. gonorrhoeae): 0.5 µg/mL | MIC (S. pneumoniae Daw 1): 8 µg/mL | MIC [2]: 1 µg/mL | MIC [3]: 0.5 µg/mL | MIC [4]: 8 µg/mL | MIC (P. aeruginosa): 8 µg/mL | IC50 [5]: 3.76 µg/mL | MIC (S. Typhimurium): 2 µg/mL | MIC (Y. pseudotuberculosis): 1 µg/mL | MIC [6]: 8 µg/mL

C[N+](C)(C)CCCCOc1cc(/C=C/c2ccc(/C=C/c3cc(OCCCC[N+](C)(C)C)cc(OCCCC[N+](C)(C)C)c3)cc2)cc(OCCCC[N+](C)(C)C)c1.[I-].[I-].[I-].[I-] [Formula F]
IC50 (HRPTEpiC): 79.2 µg/mL | MIC (E. coli K12 (ATCC 47076)): 32 µg/mL | MIC [3]: 2 µg/mL | MIC [4]: > 64 µg/mL | viability [7]: 79% | viability at 24 h (Cytotoxicity, MTT assay; human, Hep G2 (ATCC HB-8065) cells, Hep G2): 100% | viability at 24 h (Cytotoxicity, MTT assay; mouse, J774 (ATCC TIB-67) cells): 51% | viability at 24 h (Cytotoxicity, MTT assay; mouse, NIH 3T3 (ATCC CRL-1658) cells, NIH 3T3): 56.2% | MIC [6]: 32 µg/mL
